Reference: paper PMC4594923, “Food Polyphenols Fail to Cause a Biologically Relevant Reduction of COX-2 Activity” (PLoS ONE, 2015)
Marks after values point to notes of the source that are not given here.

What was measured:
[1] = system: arachidonic acid (AA) cascade; assay: liver tissue oxylipin/PG levels in LPS induced sepsis in mice; assay type: in vivo, C57BL/6N mice; conditions: liver tissue 24 h after LPS treatment
IL–6 = assay: kidney IL–6 mRNA (qPCR) in LPS induced sepsis in mice; assay type: in vivo, C57BL/6N mice; conditions: compound i. p. 100 mg/kg bw 2 h before LPS, 24 h after LPS, vs. LPS group
Description: Samples were stored at -80°C till further analysis. […] Plasma was generated by centrifugation at 4000 g at 4°C and stored at -80°C till further analysis.
Tissue sections were stored in RNA-later immediately after organ retrieval. Total RNA was extracted using the RNeasy mini kit system (Qiagen, Hilden, Germany) and transcribed using Superscript II Reverse transcriptase (Invitrogen). Quantitative (q) PCR was performed on […] (Roche Diagnostics, Penzberg, Germany) using FastStart Sybr-Green chemistry. Gene-specific primers for IL–6 (Quantitec QT00098875, Qiagen) and MCP–1 (Quantitec QT00167832, Qiagen) were used for the gene of interest and HPRT served as house keeping gene for normalization (Quantitec QT00166768, Qigaen). Quantification was carried out using qgene software.

COX–2 = conditions: read-out: IC50, RAW 264.7 cells; cited from earlier work
ovine recombinant COX–1 = target: T1, ovine recombinant COX–1 (Ovis aries, UniProt P05979); assay: cell-free COX–1 enzyme assay (PGE2 formation, LC-MS); assay type: biochemical; set-up: purchased Cayman Chemicals/ Biomol, Hamburg, Germany
T1 sequence (P05979 25-600): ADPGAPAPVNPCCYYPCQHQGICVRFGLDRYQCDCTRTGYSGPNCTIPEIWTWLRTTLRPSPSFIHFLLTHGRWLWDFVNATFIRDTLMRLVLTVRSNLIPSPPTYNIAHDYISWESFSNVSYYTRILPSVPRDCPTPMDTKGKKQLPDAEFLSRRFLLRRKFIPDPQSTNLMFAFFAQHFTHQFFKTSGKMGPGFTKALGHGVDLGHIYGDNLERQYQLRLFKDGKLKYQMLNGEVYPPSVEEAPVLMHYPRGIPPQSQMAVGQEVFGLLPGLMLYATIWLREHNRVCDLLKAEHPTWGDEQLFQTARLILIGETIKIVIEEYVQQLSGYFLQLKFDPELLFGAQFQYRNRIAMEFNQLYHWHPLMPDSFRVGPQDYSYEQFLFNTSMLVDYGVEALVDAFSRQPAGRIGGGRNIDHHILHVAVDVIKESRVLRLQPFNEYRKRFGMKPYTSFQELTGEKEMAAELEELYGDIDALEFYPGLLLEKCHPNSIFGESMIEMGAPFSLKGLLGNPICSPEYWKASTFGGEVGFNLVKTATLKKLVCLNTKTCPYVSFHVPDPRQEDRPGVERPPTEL

For `O=c1cc(-c2ccc(O)cc2)oc2cc(O)cc(O)c12` [Apigenin, apigenin], the “4,5-DiHDPE concentration” value ([1]; mean) was […], the 4-HDHA concentration ([1]; mean) was […] and the “5(6)-EpETrE concentration” value ([1]; mean) was […]. The “5,6-DiHETE concentration” value ([1]; mean) was […], the “5,6-DiHETrE concentration” value ([1]; mean) was […] and the 5-HEPE concentration ([1]; mean) was […]. It also gave a 5-HETE concentration ([1]; mean) of […], a 5-iPF2α concentration ([1]; mean) of […] and a 5-oxo-ETE concentration ([1]; mean) of […]. For the same compound, the 6-keto-PGF1α concentration ([1]; mean) was […], the “7,8-DiHDPE concentration” value ([1]; mean) was […] and the 7-HDHA concentration ([1]; mean) was […]. The “8(9)-EpETE concentration” value ([1]; mean) was […], the “8(9)-EpETrE concentration” value ([1]; mean) was […] and the “8,9-DiHETE concentration” value ([1]; mean) was […]. The “8,9-DiHETrE concentration” value ([1]; mean) was […], the “8,15-DiHETE concentration” value ([1]; mean) was […] and the 8-HDHA concentration ([1]; mean) was […]. It also gave a 8-HEPE concentration ([1]; mean) of […], a 8-HETE concentration ([1]; mean) of […] and a 8-iPF2α concentration ([1]; mean) of […]. For the same compound, the “9(10)-EpODE concentration” value ([1]; mean) was […], the “9(10)-EpOME concentration” value ([1]; mean) was […] and the “9(10)-Epoxystearic acid concentration” value ([1]; mean) was […]. The “9,10,13-TriHOME concentration” value ([1]; mean) was […], the “9,10-DiHODE concentration” value ([1]; mean) was […] and the “9,10-DiHOME concentration” value ([1]; mean) was […]. For the same compound, the “9,10-Dihydroxystearic acid concentration” value ([1]; mean) was […], the “9,12,13-TriHOME concentration” value ([1]; mean) was […] and the 9-HETE concentration ([1]; mean) was […]. It also gave a 9-HODE concentration ([1]; mean) of […], a 9-HOTrE concentration ([1]; mean) of […] and a 9-oxo-ODE concentration ([1]; mean) of […]. For the same compound, the “10(11)-EpDPE concentration” value ([1]; mean) was […], the “10,11-DiHDPE concentration” value ([1]; mean) was […] and the 10-HDHA concentration ([1]; mean) was […]. For the same compound, the “11(12)-EpETE concentration” value ([1]; mean) was […], the “11(12)-EpETrE concentration” value ([1]; mean) was […] and the “11,12-DiHETE concentration” value ([1]; mean) was […]. The “11,12-DiHETrE concentration” value ([1]; mean) was […], the 11-HDHA concentration ([1]; mean) was […] and the 11-HETE concentration ([1]; mean) was […]. For the same compound, the “12(13)-EpODE concentration” value ([1]; mean) was […], the “12(13)-EpOME concentration” value ([1]; mean) was […] and the “12,13-DiHODE concentration” value ([1]; mean) was […]. For the same compound, the “12,13-DiHOME concentration” value ([1]; mean) was […], the 12-HEPE concentration ([1]; mean) was […] and the 12-HETE concentration ([1]; mean) was […]. For the same compound, the “13(14)-EpDPE concentration” value ([1]; mean) was […], the “13,14-DiHDPE concentration” value ([1]; mean) was […] and the “13,14-dihydro-15-keto-PGE1 concentration” value ([1]; mean) was […]. For the same compound, the “13,14-dihydro-15-keto-PGF2α concentration” value ([1]; mean) was […], the 13-HDHA concentration ([1]; mean) was […] and the 13-HODE concentration ([1]; mean) was […]. For the same compound, the 13-HOTrE concentration ([1]; mean) was […], the 13-oxo-ODE concentration ([1]; mean) was […] and the “14(15)-EpETE concentration” value ([1]; mean) was […]. For the same compound, the “14(15)-EpETrE concentration” value ([1]; mean) was […], the “14,15-DiHETE concentration” value ([1]; mean) was […] and the “14,15-DiHETrE concentration” value ([1]; mean) was […]. The 14-HDHA concentration ([1]; mean) was […], the “15(16)-EpODE concentration” value ([1]; mean) was […] and the “15(S)-HETrE concentration” value ([1]; mean) was […]. The “15,16-DiHODE concentration” value ([1]; mean) was […], the 15-HEPE concentration ([1]; mean) was […] and the 15-HETE concentration ([1]; mean) was […]. The 15-oxo-ETE concentration ([1]; mean) was […], the “16(17)-EpDPE concentration” value ([1]; mean) was […] and the “16,17-DiHDPE concentration” value ([1]; mean) was […]. The 16-HDHA concentration ([1]; mean) was […], the “17(18)-EpETE concentration” value ([1]; mean) was […] and the “17,18-DiHETE concentration” value ([1]; mean) was […]. The 17-HDHA concentration ([1]; mean) was […], the 18-HEPE concentration ([1]; mean) was […] and the “19(20)-EpDPE concentration” value ([1]; mean) was […]. For the same compound, the “19,20-DiHDPE concentration” value ([1]; mean) was […], the 20-HDHA concentration ([1]; mean) was […] and the 20-HEPE concentration ([1]; mean) was […]. For the same compound, the 20-HETE concentration ([1]; mean) was […], the EKODE concentration ([1]; mean) was […] and the PGD1 concentration ([1]; mean) was […]. The PGD2 concentration ([1]; mean) was […], the PGE1 concentration ([1]; mean) was […] and the PGE2 concentration ([1]; mean) was […]. The PGF1α concentration ([1]; mean) was […], the TXB2 concentration ([1]; mean) was […] and the TxB3 concentration ([1]; mean) was […]. For the same compound, the dihomo-PGF2α concentration ([1]; mean) was […], the PGF2α concentration ([1]; mean (first listing, r6)) was […] and the PGF2α concentration ([1]; mean (second listing, r9)) was […]. The “kidney IL–6 mRNA expression” value (IL–6) was “did not see an effect”, the IC50 (COX–2) was […] and the “decreased PGE2 formation in comparison to the control, COX–1” value (ovine recombinant COX–1; 100 μM) was 31%. For the same compound, the “inhibition, COX–1 enzyme assay” value (ovine recombinant COX–1; up to 100 μM) was “inhibition < 50%(up to 100 μM)”.
